# Experimental data published in the supplement of paper PMC10307832.
# Assays:
# Experiment in all cases: relative viability (nuclei count vs DMSO), 5 days (fraction); higher = more cells survive
# [1] = compound: CC1=C(C(=NN1)C)CC2=C(C3=C(S2)N(C(=O)N(C3=O)C)CC(C)C)C(=O)N4C[C@@H](CO4)O
# Summary of the method: (§1)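 Lung cancer cell lines in 1536-well plates were kept overnight at 37 °C, then pinned with five library-drug doses (not always all listed) spaced by √10 on vehicle-anchored plates. After 5 days without medium change, cells were fixed, permeabilised and Hoechst-stained in one step, imaged at 4×, and nuclei were counted with MetaXpress. Viability is treated-well nuclei divided by vehicle-well nuclei, taken as the median over plates. Plates passed only with control CV below 25% and at least one doubling.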
# IDH-C35 = compound: Cc1ccccc1C(C(=O)NC1CCCCC1)N(C(=O)Cn1ccnc1C)c1cccc(F)c1 [IDH-C35]
# Summary of the method: as §1
# IDH-C35 + Tozasertib = compound: Cc1ccccc1C(C(=O)NC1CCCCC1)N(C(=O)Cn1ccnc1C)c1cccc(F)c1 [IDH-C35] + Cc1cc(Nc2cc(N3CCN(C)CC3)nc(Sc3ccc(NC(=O)C4CC4)cc3)n2)n[nH]1 [Tozasertib] (partner 0.1 µM)
# Summary of the method: (§2)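 Relative viability equals treated-well nuclei counts divided by vehicle-well nuclei counts. Counts came from 4× images of lung cancer cell lines grown in 1536-well plates for 5 days after pin-tool dosing on the day after seeding. Dosing used one drug alone or a fixed anchor-drug dose plus five library-drug doses (not always all listed) in √10 steps, and values are medians of duplicate plates.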
# [2] = compound: CC1=C(C(=NN1)C)CC2=C(C3=C(S2)N(C(=O)N(C3=O)C)CC(C)C)C(=O)N4C[C@@H](CO4)O + CC1(C)CCC(c2ccc(Cl)cc2)=C(CN2CCN(c3ccc(C(=O)NS(=O)(=O)c4ccc(N[C@H](CCN5CCOCC5)CSc5ccccc5)c(S(=O)(=O)C(F)(F)F)c4)cc3)CC2)C1 [Navitoclax] (partner 0.5 µM)
# Summary of the method: as §2
cell line,measurement,setting,value
UMC-11,relative viability,[1]; 0.0025 µM,1.08
same,relative viability,[1]; 0.007906 µM,1.04
same,relative viability,[1]; 0.025 µM,0.974
same,relative viability,[1]; 0.07906 µM,0.993
same,relative viability,[1]; 0.25 µM,1.18
same,relative viability,IDH-C35; 0.08 µM,1.03
same,relative viability,IDH-C35; 0.253 µM,0.975
same,relative viability,IDH-C35; 0.8 µM,0.986
same,relative viability,IDH-C35; 2.53 µM,0.951
same,relative viability,IDH-C35; 8 µM,1.02
same,relative viability,IDH-C35 + Tozasertib; first compound 0.08 µM,0.199
same,relative viability,IDH-C35 + Tozasertib; first compound 0.253 µM,0.198
same,relative viability,IDH-C35 + Tozasertib; first compound 0.8 µM,0.197
same,relative viability,IDH-C35 + Tozasertib; first compound 2.53 µM,0.198
same,relative viability,IDH-C35 + Tozasertib; first compound 8 µM,0.193
same,relative viability,[2]; first compound 0.0025 µM,0.31
same,relative viability,[2]; first compound 0.007906 µM,0.215
same,relative viability,[2]; first compound 0.025 µM,0.233
same,relative viability,[2]; first compound 0.07906 µM,0.211
same,relative viability,[2]; first compound 0.25 µM,0.199
